{"source": "paper PMC10498452", "about": "“Targeted Protein Degradation: Advances, Challenges, and Prospects for Computational Methods” (Journal of Chemical Information and Modeling, 2023)", "key": {"SMARCA2": {"molecular_target": "T1, SMARCA2 (Homo sapiens, UniProt P51531)", "T1 construct": "luminescence-based reporter assays with endogeneous HiBiT-tagged proteins have been developed that yield degradation profiles; endogenous in cells", "T1 sequence (P51531 whole entry)": "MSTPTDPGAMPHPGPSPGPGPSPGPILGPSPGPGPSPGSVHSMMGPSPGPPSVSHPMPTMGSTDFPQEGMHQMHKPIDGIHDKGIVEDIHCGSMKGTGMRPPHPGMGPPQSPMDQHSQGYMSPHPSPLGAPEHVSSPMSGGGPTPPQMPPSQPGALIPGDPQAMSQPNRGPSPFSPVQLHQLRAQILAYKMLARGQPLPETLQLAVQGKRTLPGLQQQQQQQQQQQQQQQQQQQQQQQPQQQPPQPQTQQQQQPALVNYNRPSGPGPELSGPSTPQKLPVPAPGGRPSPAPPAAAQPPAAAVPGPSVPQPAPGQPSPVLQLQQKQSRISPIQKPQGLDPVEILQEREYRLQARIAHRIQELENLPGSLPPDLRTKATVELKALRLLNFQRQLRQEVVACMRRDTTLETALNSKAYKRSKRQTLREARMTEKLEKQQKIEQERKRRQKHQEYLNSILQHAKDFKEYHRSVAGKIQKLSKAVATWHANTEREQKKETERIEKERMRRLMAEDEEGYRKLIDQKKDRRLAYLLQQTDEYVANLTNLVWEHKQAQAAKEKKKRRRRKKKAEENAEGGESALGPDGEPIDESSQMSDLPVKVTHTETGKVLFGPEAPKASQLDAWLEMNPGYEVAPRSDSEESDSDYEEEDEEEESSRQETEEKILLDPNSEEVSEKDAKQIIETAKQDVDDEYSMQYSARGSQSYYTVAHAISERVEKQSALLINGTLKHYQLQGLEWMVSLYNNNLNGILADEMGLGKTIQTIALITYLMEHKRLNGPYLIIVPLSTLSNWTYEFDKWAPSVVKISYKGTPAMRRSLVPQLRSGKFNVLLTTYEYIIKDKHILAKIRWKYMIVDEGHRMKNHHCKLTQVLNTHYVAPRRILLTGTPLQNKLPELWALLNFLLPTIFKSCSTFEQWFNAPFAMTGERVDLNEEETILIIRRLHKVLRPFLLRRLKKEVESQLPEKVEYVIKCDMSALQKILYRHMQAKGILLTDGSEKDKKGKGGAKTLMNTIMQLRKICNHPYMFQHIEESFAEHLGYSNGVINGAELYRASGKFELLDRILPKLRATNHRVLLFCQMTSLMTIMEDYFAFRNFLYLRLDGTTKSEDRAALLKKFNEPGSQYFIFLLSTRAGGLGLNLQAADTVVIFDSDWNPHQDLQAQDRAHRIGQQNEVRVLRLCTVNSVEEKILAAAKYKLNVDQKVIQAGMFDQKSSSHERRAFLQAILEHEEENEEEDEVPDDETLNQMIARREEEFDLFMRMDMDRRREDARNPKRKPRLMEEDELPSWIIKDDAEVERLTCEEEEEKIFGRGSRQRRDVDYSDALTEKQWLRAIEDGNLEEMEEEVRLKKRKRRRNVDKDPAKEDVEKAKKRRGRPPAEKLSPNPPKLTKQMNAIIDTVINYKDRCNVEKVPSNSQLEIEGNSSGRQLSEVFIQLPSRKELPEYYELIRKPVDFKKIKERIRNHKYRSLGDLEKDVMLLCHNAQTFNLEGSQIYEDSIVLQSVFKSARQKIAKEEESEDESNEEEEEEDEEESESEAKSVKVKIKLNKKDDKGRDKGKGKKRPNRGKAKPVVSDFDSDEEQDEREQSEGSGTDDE", "experiment": "HiBiT assay, degradation profiles", "format": "cell-based", "conditions": "VHL-recruiting degrader", "text": "To monitor the intracellular degradation, luminescence-based reporter assays with endogeneous HiBiT-tagged proteins have been developed that yield degradation profiles, from which maximum degradation levels (Dmax) as well as the half-maximum degradation concentration (DC50) can be derived to estimate the potency of a degrader molecule,[48] which is instrumental in degrader design (see Section 4.2). As a matter of fact, variants of this technology are applied to characterize the different steps in TPD, such as target engagement, ternary complex formation, and target ubiquitination,[115] providing complementary kinetic information to the other experimental approaches discussed.\nFigure 6 lists all of our designs in this study (Linkers 1–6) along with ACBI1, a previously optimized VHL-recruiting degrader of SMARCA2.[28] Informed by the random forest classifier, which was trained and validated on about 100 known compounds (model accuracy of 83%), the designs generally involve rigid linkers that contain (aromatic) ring structures with low molecular weight. […] By contrast, 34 designs that incorporated typical alkyl and PEG linkers spanning 4 to ∼20 atoms as well as known linker moieties, such as triazoles and phenyl rings (o, m, or p-substituted to provide different geometries), only produced two active degraders.\nFigure 7 Experimental confirmation of degrader designs. […]"}, "[1]": {"molecular_target": "SMARCA2-VHL ternary complex (Homo sapiens, UniProt P40337+P51531)", "sequence (P51531 1373-1511 limits assumed)": "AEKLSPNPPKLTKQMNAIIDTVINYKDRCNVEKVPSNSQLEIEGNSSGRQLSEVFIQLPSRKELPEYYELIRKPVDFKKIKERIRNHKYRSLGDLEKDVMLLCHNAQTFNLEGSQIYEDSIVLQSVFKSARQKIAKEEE", "sequence (P40337 54-213 limits assumed)": "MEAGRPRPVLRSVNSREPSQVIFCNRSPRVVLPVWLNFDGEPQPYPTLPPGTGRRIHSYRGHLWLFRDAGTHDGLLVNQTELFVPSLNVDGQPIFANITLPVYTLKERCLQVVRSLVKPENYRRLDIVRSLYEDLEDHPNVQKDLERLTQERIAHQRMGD", "sequence (Q15369 17-112 partner limits assumed)": "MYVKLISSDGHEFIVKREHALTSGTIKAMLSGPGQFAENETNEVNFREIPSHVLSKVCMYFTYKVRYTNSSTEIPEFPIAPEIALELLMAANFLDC", "sequence (Q15370 1-104 partner limits assumed)": "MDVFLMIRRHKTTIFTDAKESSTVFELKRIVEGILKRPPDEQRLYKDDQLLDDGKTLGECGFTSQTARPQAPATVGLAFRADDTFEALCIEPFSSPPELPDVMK", "experiment": "AlphaLISA assay measuring ternary complex formation", "format": "binding", "text": "Competitive-binding and proximity-based assays can also probe the degree of degrader–POI engagement or ternary complex formation (Table 1), thus allowing the determination of binding affinities and cooperativity. These techniques measure changes in the polarization of a fluorescently labeled target protein upon binding to a degrader, as in fluorescence polarization (FP),[85] or detect intensity changes, upon ternary complex formation, in the fluorescence or luminescence signal emitted from beads tagged to the POI or E3 ligase, as in time-resolved Förster resonance energy-transfer (TR-FRET)[86] or in the amplified luminescent proximity homogeneous assay (ALPHA).[87] In the proximity ligation assay (PLA), a technology that is gaining popularity in TPD research, the signal is even further amplified through antibody-attached oligonucleotide hybridization.[88] These methods have been used in TPD studies for the identification of selective degraders and for the high-throughput screening of degrader designs.[39]−[41],[89] In particular, ALPHA has a high dynamic range and signal-to-noise ratio and, when applied in a titration experiment (usually set up as an immunoassay called AlphaLISA), it yields relative populations of ternary complexes as a function of degrader concentration and is routinely employed as a tool in degrader design projects (see Section 4.2). […]"}}, "data": [{"smiles": "Cc1ncsc1-c1ccc(CNC(=O)[C@@H]2C[C@@H](O)CN2C(=O)[C@@H](NC(=O)C2(F)CC2)C(C)(C)C)c(OCCOc2ccc(CN3CCN(c4cc(-c5ccccc5O)nnc4N)CC3)cc2)c1", "note": "[ACBI1]", "values": [{"measurement": "DC50", "setting": "SMARCA2", "value": 37, "unit": "nM"}, {"measurement": "Dmax", "setting": "SMARCA2", "value": 94, "unit": "%"}, {"measurement": "AlphaLISA (% of control)", "setting": "[1]", "value": "100 % of control"}]}]}
